Data published in ChEMBL document CHEMBL5512682, “Discovery of BMS-986308: A Renal Outer Medullary Potassium Channel Inhibitor for the Treatment of Heart Failure” (J Med Chem, 2024).
Converted amounts (≈) assume the structure as drawn.

Legend:
[1] = Metabolic stability in human liver microsomes assessed as parent compound remaining at 10 uM measured after 10 mins in presence of NADPH and GSH by UPLC-MS/MS analysis; format: ADME, Microsome; conditions: read-out: Stability
[2] = Metabolic stability in rat liver microsomes assessed as parent compound remaining at 10 uM measured after 10 mins in presence of NADPH and GSH by UPLC-MS/MS analysis; format: ADME, Microsome; conditions: read-out: Stability
[3] = Glutathione reactivity in human liver microsomes assessed as GSH-adduct formation at 10 uM incubated for 60 mins in presence of NADPH and GSH by HPLC-MS analysis; format: ADME, Microsome; conditions: 1 h
[4] = biological target: Inward rectifier potassium channel 2 (Homo sapiens, UniProt P63252); assay: Inhibition of Kir 2.1 (unknown origin)
Inward rectifier potassium channel 2, sequence (P63252 whole entry): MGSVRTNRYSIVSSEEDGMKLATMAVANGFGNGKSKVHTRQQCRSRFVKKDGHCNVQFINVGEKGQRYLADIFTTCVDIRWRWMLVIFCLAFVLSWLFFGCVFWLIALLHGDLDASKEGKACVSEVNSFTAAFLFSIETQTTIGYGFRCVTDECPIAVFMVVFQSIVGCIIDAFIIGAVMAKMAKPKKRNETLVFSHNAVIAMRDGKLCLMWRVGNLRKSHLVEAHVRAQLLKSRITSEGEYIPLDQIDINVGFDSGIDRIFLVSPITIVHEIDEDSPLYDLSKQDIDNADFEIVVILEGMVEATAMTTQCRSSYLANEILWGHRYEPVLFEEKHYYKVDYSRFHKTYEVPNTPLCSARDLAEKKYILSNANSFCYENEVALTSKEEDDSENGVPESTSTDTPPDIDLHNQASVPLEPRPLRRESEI

[5] = biological target: Inward rectifier potassium channel 4 (Homo sapiens, UniProt P48050); assay: Inhibition of Kir 2.3 (unknown origin)
Inward rectifier potassium channel 4, sequence (P48050 whole entry): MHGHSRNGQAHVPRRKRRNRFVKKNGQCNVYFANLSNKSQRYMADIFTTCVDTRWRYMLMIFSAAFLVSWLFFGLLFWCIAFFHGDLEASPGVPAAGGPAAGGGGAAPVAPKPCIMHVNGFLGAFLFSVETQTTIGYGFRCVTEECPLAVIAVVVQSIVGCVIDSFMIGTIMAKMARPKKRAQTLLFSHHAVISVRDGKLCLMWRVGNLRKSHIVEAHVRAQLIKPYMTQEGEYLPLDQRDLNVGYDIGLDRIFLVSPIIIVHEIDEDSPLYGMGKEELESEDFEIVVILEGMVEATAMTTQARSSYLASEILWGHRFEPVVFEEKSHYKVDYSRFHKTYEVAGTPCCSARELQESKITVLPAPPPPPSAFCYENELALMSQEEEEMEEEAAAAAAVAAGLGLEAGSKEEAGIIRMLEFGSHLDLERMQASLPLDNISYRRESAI

[6] = biological target: ATP-sensitive inward rectifier potassium channel 10 (Homo sapiens, UniProt P78508); assay: Inhibition of Kir 4.1 (unknown origin)
[7] = biological target: Inward rectifier potassium channel 13 (Homo sapiens, UniProt O60928); assay: Inhibition of Kir 7.1 (unknown origin)
Inward rectifier potassium channel 13, sequence (O60928 whole entry): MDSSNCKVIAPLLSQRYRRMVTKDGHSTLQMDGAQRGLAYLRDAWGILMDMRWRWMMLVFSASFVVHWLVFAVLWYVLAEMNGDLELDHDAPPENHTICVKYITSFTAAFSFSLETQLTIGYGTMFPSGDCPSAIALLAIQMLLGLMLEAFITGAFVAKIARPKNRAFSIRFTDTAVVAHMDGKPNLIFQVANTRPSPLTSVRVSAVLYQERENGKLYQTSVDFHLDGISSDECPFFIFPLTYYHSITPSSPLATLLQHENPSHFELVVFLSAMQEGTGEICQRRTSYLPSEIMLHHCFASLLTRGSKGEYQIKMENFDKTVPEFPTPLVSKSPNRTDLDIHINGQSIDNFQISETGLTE

[8] = Permeability of compound from apical to basolateral side in human Caco-2 cells; format: ADME, cell-based; conditions: read-out: permeability
[9] = Permeability of compound from basolateral to apical side in human Caco-2 cells; format: ADME, cell-based
Cytochrome P450 1A2 = Cytochrome P450 1A2 (Homo sapiens, UniProt P05177); assay: Inhibition of CYP1A2 in human liver microsomes; format: ADME, Microsome
Cytochrome P450 2B6 = Cytochrome P450 2B6 (Homo sapiens, UniProt P20813); assay: Inhibition of CYP2B6 in human liver microsomes; format: ADME, Microsome
Cytochrome P450 2B6, sequence (P20813 whole entry): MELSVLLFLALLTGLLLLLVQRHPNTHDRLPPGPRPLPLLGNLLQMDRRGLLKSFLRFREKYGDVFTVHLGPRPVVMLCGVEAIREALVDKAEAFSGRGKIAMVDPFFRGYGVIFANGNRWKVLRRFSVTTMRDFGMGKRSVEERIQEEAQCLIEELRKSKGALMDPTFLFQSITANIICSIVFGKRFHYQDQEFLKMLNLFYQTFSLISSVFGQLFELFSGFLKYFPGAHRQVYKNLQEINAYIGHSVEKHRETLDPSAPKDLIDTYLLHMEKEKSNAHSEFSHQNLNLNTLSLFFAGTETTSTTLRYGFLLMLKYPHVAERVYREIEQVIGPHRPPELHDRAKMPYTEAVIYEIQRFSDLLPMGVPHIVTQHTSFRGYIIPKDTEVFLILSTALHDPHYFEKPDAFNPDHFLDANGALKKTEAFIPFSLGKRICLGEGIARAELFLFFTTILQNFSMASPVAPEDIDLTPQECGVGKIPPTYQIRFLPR

Cytochrome P450 2C8 = Cytochrome P450 2C8 (Homo sapiens, UniProt P10632); assay: Inhibition of CYP2C8 in human liver microsomes; format: ADME, Microsome
Cytochrome P450 2C9 = Cytochrome P450 2C9 (Homo sapiens, UniProt P11712); assay: Inhibition of CYP2C9 in human liver microsomes; format: ADME, Microsome
Cytochrome P450 2C19 = Cytochrome P450 2C19 (Homo sapiens, UniProt P33261); assay: Inhibition of CYP2C19 in human liver microsomes; format: ADME, Microsome
Cytochrome P450 2D6 = Cytochrome P450 2D6 (Homo sapiens, UniProt P10635); assay: Inhibition of CYP2D6 in human liver microsomes; format: ADME, Microsome
Cytochrome P450 3A4 [10] = biological target: T1, Cytochrome P450 3A4 (Homo sapiens, UniProt P08684); assay: Inhibition of CYP3A4 in human liver microsomes using midazolam as substrate; format: ADME, Microsome
T1 sequence (P08684 whole entry): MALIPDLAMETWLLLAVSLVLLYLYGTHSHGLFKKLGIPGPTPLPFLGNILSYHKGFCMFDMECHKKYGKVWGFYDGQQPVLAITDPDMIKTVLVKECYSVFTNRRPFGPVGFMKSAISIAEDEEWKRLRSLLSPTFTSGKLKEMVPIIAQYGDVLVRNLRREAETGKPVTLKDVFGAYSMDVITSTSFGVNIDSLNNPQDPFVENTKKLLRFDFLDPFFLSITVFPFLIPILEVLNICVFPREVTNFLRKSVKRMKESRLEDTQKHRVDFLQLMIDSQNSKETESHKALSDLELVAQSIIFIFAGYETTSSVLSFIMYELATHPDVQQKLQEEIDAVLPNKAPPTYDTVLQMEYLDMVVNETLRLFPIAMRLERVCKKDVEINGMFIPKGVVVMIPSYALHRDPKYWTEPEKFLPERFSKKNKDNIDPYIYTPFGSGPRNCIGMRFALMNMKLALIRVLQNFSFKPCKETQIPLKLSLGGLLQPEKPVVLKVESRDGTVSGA

Cytochrome P450 3A4 [11] = biological target: T1, Cytochrome P450 3A4; assay: Inhibition of CYP3A4 in human liver microsomes using testosterone as substrate; format: ADME, Microsome
CYP1A2 = CYP1A2 (Homo sapiens, UniProt P05177); assay: Induction of CYP1A2 (unknown origin); format: ADME
CYP2B6 = CYP2B6 (Homo sapiens, UniProt P20813); assay: Induction of CYP2B6 (unknown origin); format: ADME
CYP2B6, sequence (P20813 whole entry): as the sequence (P20813 whole entry) above

CYP3A4 = CYP3A4 (Homo sapiens, UniProt P08684); assay: Induction of CYP3A4 (unknown origin); format: ADME
CYP3A4, sequence (P08684 whole entry): as the sequence (P08684 whole entry) above

[12] = Protein binding in human plasma assessed as unbound fraction; format: ADME, cell-free
[13] = Protein binding in rat plasma assessed as unbound fraction; format: ADME, cell-free
[14] = Protein binding in mouse plasma assessed as unbound fraction; format: ADME, cell-free
[15] = Protein binding in dog plasma assessed as unbound fraction; format: ADME, cell-free, Canis lupus familiaris
[16] = Protein binding in Cynomolgus monkey plasma assessed as unbound fraction; format: ADME, cell-free, Macaca fascicularis
[17] = biological target: Nuclear receptor subfamily 1 group I member 2 (Homo sapiens, UniProt O75469); assay: Activation of PXR (unknown origin)
[18] = Cytotoxicity against human HepG2 cells; format: toxicity, cell-based
[19] = biological target: Multidrug and toxin extrusion protein 1 (Homo sapiens, UniProt Q96FL8); assay: Inhibition of MATE1 (unknown origin)
Bile salt export pump = Bile salt export pump (Homo sapiens, UniProt O95342); assay: Inhibition of BSEP (unknown origin)
[20] = biological target: Solute carrier organic anion transporter family member 1B1 (Homo sapiens, UniProt Q9Y6L6); assay: Inhibition of OATP1B1 (unknown origin)
[21] = biological target: Solute carrier organic anion transporter family member 1B3 (Homo sapiens, UniProt Q9NPD5); assay: Inhibition of OATP1B3 (unknown origin)
[22] = biological target: Hepatic sodium/bile acid cotransporter (Homo sapiens, UniProt Q14973); assay: Inhibition of NTCP (unknown origin)
Hepatic sodium/bile acid cotransporter, sequence (Q14973 whole entry): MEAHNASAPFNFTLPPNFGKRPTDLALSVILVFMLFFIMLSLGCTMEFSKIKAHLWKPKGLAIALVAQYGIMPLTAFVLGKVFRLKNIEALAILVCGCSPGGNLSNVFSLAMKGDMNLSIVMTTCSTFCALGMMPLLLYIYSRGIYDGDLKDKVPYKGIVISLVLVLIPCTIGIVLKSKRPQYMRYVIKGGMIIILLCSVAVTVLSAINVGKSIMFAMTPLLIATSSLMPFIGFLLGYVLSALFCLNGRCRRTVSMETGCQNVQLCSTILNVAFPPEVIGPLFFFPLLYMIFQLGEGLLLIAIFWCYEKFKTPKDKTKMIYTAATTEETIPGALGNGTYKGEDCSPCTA

[23] = biological target: ATP-binding cassette sub-family C member 2 (Homo sapiens, UniProt Q92887); assay: Inhibition of MRP2 (unknown origin)
ATP-binding cassette sub-family C member 2, sequence (Q92887 whole entry): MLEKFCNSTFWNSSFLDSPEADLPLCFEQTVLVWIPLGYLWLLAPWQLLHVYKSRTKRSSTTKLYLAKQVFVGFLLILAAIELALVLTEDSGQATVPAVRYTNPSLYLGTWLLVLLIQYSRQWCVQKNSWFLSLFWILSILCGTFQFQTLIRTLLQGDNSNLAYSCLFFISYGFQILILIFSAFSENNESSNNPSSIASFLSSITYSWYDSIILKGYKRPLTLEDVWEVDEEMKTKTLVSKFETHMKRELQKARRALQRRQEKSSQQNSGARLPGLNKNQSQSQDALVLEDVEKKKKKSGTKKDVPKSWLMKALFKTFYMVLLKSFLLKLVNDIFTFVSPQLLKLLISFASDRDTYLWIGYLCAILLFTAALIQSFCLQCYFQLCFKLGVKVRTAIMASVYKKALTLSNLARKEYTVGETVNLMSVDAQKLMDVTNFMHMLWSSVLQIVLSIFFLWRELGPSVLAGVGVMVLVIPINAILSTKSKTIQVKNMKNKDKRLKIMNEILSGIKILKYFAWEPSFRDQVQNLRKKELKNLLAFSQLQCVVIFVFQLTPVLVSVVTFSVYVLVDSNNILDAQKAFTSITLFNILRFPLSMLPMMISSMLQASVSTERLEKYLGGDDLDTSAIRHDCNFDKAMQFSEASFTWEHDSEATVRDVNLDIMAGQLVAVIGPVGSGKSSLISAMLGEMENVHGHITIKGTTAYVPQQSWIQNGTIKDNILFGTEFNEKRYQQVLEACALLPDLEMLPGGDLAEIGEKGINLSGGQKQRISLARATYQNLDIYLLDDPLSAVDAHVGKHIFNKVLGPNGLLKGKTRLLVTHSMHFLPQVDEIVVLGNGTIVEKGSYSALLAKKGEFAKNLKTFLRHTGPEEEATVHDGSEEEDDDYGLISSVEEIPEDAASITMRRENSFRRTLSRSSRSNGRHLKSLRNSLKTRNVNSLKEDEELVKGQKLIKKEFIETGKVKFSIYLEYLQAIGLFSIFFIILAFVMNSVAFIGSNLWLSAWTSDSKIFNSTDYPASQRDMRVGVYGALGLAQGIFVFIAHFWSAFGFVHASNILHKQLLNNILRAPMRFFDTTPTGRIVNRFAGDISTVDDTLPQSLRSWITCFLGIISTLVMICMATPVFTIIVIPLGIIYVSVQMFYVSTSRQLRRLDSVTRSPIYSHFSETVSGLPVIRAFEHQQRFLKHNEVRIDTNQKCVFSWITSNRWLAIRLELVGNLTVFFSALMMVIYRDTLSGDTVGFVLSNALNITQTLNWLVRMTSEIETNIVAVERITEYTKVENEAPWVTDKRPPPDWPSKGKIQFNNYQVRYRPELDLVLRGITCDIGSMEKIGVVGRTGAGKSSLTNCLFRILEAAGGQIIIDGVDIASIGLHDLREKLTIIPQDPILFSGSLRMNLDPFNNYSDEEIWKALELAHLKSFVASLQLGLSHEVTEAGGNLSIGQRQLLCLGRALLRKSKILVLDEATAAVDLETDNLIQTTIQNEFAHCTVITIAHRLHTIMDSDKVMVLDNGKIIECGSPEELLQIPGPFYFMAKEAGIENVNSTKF

[24] = biological target: Solute carrier family 22 member 6 (Homo sapiens, UniProt Q4U2R8); assay: Inhibition of OAT1 (unknown origin)
Solute carrier family 22 member 6, sequence (Q4U2R8 whole entry): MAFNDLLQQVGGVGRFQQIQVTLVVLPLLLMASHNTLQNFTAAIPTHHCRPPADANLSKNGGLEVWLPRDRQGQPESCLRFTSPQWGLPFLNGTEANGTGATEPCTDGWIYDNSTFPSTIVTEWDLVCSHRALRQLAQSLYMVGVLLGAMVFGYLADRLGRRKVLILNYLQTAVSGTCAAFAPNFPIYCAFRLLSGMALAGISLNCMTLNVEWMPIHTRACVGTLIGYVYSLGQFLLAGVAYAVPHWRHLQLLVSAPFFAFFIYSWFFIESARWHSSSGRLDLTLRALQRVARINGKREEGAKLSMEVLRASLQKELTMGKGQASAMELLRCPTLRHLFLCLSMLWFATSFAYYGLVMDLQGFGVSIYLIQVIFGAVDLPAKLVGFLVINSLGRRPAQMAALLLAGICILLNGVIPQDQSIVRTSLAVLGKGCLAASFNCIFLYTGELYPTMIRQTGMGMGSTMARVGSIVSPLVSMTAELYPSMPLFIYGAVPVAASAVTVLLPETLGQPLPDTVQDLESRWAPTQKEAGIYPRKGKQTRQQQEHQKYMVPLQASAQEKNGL

[25] = biological target: Organic anion transporter 3 (Homo sapiens, UniProt Q8TCC7); assay: Inhibition of OAT3 (unknown origin)
[26] = biological target: Broad substrate specificity ATP-binding cassette transporter ABCG2 (Homo sapiens, UniProt Q9UNQ0); assay: Inhibition of BCRP (unknown origin)
[27] = Solubility of compound at pH 1.1; format: physicochemical; conditions: buffer
[28] = Solubility of compound at pH 7.4; format: physicochemical; conditions: buffer
[29] = Volume of distribution at steady state in mouse at 2 mg/kg, iv; format: ADME, organism-based; conditions: in vivo, read-out: Vdss
[30] = Half-life in mouse at 2 mg/kg, iv; format: ADME, organism-based; conditions: in vivo
[31] = MRT in mouse at 2 mg/kg, iv; format: ADME, organism-based; conditions: in vivo
[32] = Cmax in mouse at 2 mg/kg, po; format: ADME, organism-based; conditions: in vivo
[33] = Tmax in mouse at 2 mg/kg, po; format: ADME, organism-based; conditions: in vivo
[34] = AUC (0 to t) in mouse at 2 mg/kg, po; format: ADME, organism-based; conditions: in vivo
[35] = Oral bioavailability in mouse at 5 mg/kg; format: ADME, organism-based; conditions: in vivo
[36] = Volume of distribution at steady state in male Sprague-Dawley rat at 2 mg/kg, iv measured after 24 hrs by LC-MS/MS analysis; format: ADME, organism-based; conditions: in vivo, read-out: Vdss
[37] = Half-life in male Sprague-Dawley rat at 2 mg/kg, iv measured after 24 hrs by LC-MS/MS analysis; format: ADME, organism-based; conditions: in vivo
[38] = MRT in male Sprague-Dawley rat at 2 mg/kg, iv measured after 24 hrs by LC-MS/MS analysis; format: ADME, organism-based; conditions: in vivo
[39] = Cmax in male Sprague-Dawley rat at 5 mg/kg, po measured after 24 hrs by LC-MS/MS analysis; format: ADME, organism-based; conditions: in vivo
[40] = Tmax in male Sprague-Dawley rat at 5 mg/kg, po measured after 24 hrs by LC-MS/MS analysis; format: ADME, organism-based; conditions: in vivo
[41] = AUC (0 to t) in male Sprague-Dawley rat at 5 mg/kg, po measured after 24 hrs by LC-MS/MS analysis; format: ADME, organism-based; conditions: in vivo
[42] = Oral bioavailability in male Sprague-Dawley rat at 5 mg/kg measured after 24 hrs by LC-MS/MS analysis; format: ADME, organism-based; conditions: in vivo
[43] = Volume of distribution at steady state in dog at 2 mg/kg, iv; format: ADME, organism-based, Canis lupus familiaris; conditions: in vivo, read-out: Vdss
[44] = Half-life in dog at 2 mg/kg, iv; format: ADME, organism-based, Canis lupus familiaris; conditions: in vivo
[45] = MRT in dog at 2 mg/kg, iv; format: ADME, organism-based, Canis lupus familiaris; conditions: in vivo
[46] = Cmax in dog at 5 mg/kg, po; format: ADME, organism-based, Canis lupus familiaris; conditions: in vivo
[47] = Tmax in dog at 5 mg/kg, po; format: ADME, organism-based, Canis lupus familiaris; conditions: in vivo
[48] = AUC (0 to t) in dog at 5 mg/kg, po; format: ADME, organism-based, Canis lupus familiaris; conditions: in vivo
[49] = Oral bioavailability in dog at 5 mg/kg; format: ADME, organism-based, Canis lupus familiaris; conditions: in vivo
[50] = Volume of distribution at steady state in Cynomolgus monkey at 2 mg/kg, iv; format: ADME, organism-based, Macaca fascicularis; conditions: in vivo, read-out: Vdss
[51] = Half-life in Cynomolgus monkey at 2 mg/kg, iv; format: ADME, organism-based, Macaca fascicularis; conditions: in vivo
[52] = MRT in Cynomolgus monkey at 2 mg/kg, iv; format: ADME, organism-based, Macaca fascicularis; conditions: in vivo
[53] = Cmax in Cynomolgus monkey at 5 mg/kg, po; format: ADME, organism-based, Macaca fascicularis; conditions: in vivo
[54] = Tmax in Cynomolgus monkey at 5 mg/kg, po; format: ADME, organism-based, Macaca fascicularis; conditions: in vivo
[55] = AUC (0 to t) in Cynomolgus monkey at 5 mg/kg, po; format: ADME, organism-based, Macaca fascicularis; conditions: in vivo
[56] = Oral bioavailability in Cynomolgus monkey at 5 mg/kg; format: ADME, organism-based, Macaca fascicularis; conditions: in vivo

In the case of `Cc1cc(-n2ncc(CN3C[C@@H](c4ccc5c(c4C)COC5=O)N[C@@H](C)C3)n2)ncc1C#N`, the remaining at 10 min, 10 µM [1] is reported as 90%, the remaining at 10 min, 10 µM [2] is reported as 92% and the Activity [3] is reported as “Not Active”. It also gave an IC50 [4] greater than 10 µM, an IC50 [5] greater than 10 µM and an IC50 [6] greater than 10 µM. For the same compound, the IC50 [7] was greater than 10 µM, the Papp A→B [8] was 110 ×10⁻⁶ cm/s and the permeability [9] was 570 10^-6 cm/s. The IC50 (Cytochrome P450 1A2) was greater than 40 µM, the IC50 (Cytochrome P450 2B6) was greater than 40 µM and the IC50 (Cytochrome P450 2C8) was greater than 40 µM. It also gave an IC50 (Cytochrome P450 2C9) greater than 40 µM, an IC50 (Cytochrome P450 2C19) greater than 40 µM and an IC50 (Cytochrome P450 2D6) greater than 40 µM. The IC50 (Cytochrome P450 3A4 [10]) was greater than 40 µM, the IC50 (Cytochrome P450 3A4 [11]) was greater than 40 µM and the IC50 (CYP1A2) was greater than 40 µM. For the same compound, the IC50 (CYP2B6) was greater than 40 µM, the IC50 (CYP3A4) was greater than 40 µM and the PPB [12] was 52%. It also gave a PPB [13] of 68%, a PPB [14] of 83% and a PPB [15] of 76%. For the same compound, the PPB [16] was 74%, the EC50 [17] was greater than 50 µM and the IC50 [18] was greater than 100 µM. The IC50 [19] was 2.7 µM, the IC50 (Bile salt export pump) was 7 µM and the IC50 [20] was greater than 18 µM. It also gave an IC50 [21] greater than 18 µM, an IC50 [22] greater than 18 µM and an IC50 [23] greater than 18 µM. It also gave an IC50 [24] greater than 18 µM, an IC50 [25] greater than 18 µM and an IC50 [26] greater than 18 µM. For the same compound, the solubility [27] was 14000 µg/mL (≈ 31.6 mM), the solubility [28] was 30 µg/mL (≈ 0.0676 mM) and the Vd [29] was 2.6 L/kg. For the same compound, the half-life [30] was 2.8 h, the MRT [31] was 4 h and the Cmax [32] was 2800 nM. It also gave a Tmax [33] of 0.25 h, an AUC(0-t) [34] of 14 µM·h and a bioavailability [35] of 83%. For the same compound, the Vd [36] was 2.8 L/kg, the half-life [37] was 4.8 h and the MRT [38] was 5.8 h. It also gave a Cmax [39] of 3800 nM, a Tmax [40] of 0.8 h and an AUC(0-t) at 24 h [41] of 18 µM·h. The bioavailability [42] was 76%, the Vd [43] was 1.7 L/kg and the half-life [44] was 3.3 h. It also gave an MRT [45] of 1.7 h, a Cmax [46] of 1900 nM and a Tmax [47] of 0.8 h. It also gave an AUC(0-t) [48] of 5.7 µM·h, a bioavailability [49] of 48% and a Vd [50] of 5.1 L/kg. For the same compound, the half-life [51] was 4.2 h, the MRT [52] was 3.6 h and the Cmax [53] was 1000 nM. It also gave a Tmax [54] of 2 h, an AUC(0-t) [55] of 5.5 µM·h and a bioavailability [56] of 69%.
